One series concerns Human platelets. As to the kind of experiment: Platelet aggregation test (anticoagulant test), collagen-treated platelet-rich plasma. The note with it: PRP, 5 μg/ml collagen, CK 0-80 μM. Format: cell-based. The protocol:
• a. A 20 mM CK stock solution is prepared with DMSO and is diluted with 1×PBS to the different working concentrations (0, 62.5, 125, 250, 500, 1000, and 2000 μM) before experiments.
The donator should rest and fast for 12 h and not smoke before blood collection. Medication such as antihistamines, antibiotics, Aspirin, and anti-inflammatory drugs are not allowed to take 10-14 days before tests due to the potential of affecting platelet function.
To ensure the absence of coagulation, the blood sample should be fully mixed with the anticoagulant and stored at 24-27° C. It is recommended to conduct the platelet aggregation test within 30-150 min after blood sample collection.
Slightly invert the blood collection tubes 3-4 times to resuspend the blood cells. Centrifuge the samples at 170×g for 7 min and transfer the supernatants to the new tubes. The samples should be used within 5-10 min after separation; otherwise, the samples should be stored at 4° C. to avoid agglutination. […]
To test the effect of CK on the function of platelet aggregation, different concentrations of CK (0, 2.5, 5, 10, 20, 40, and 80 μM) are added to 0.25 ml PRP. […] OD value is measured with a spectrometer at 650 nm, and the value is converted into an aggregate percentage.
The aggregation percentage of platelet is calculated with the following formula: […]

The next series concerns the target T1, CYP2C8 (Homo sapiens, UniProt P10632).
T1 construct: with pooled human liver microsomes; from tissue; host or cells: pooled human liver microsomes
T1 sequence (P10632 1-490): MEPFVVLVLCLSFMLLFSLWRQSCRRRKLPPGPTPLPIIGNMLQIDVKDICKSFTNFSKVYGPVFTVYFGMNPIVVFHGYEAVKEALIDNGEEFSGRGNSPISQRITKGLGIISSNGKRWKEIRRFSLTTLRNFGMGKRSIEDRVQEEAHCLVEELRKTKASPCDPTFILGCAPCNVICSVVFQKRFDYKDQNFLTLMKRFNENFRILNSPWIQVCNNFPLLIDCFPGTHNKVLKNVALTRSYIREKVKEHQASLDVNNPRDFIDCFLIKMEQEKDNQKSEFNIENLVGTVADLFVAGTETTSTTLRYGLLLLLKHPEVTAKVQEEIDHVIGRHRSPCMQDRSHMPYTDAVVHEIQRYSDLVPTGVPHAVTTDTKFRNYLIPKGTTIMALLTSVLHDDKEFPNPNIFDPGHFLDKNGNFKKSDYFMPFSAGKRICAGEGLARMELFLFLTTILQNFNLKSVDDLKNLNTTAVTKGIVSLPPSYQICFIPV
As to the kind of experiment: Cytochrome P450 inhibition in human liver microsomes using LC-MS/MS, CYP2C8. The series is classed as in vitro ADME. The method, then: In IC50 shift experiments, CK (0.2 μL prepared in DMSO) was pre-incubated for 30 min at 37° C., at 8 different concentrations, with pooled human liver microsomes (0.1-1 mg/mL, depending on which enzyme was assessed) in the absence or presence of 1 mM NADPH in 100 μL of potassium phosphate buffer (100 mM, pH 7.4) and MgCl2 (2.5 mM). After the pre-incubation, a substrate mixture containing a probe substrate in 100 μL of potassium phosphate buffer (100 mM, pH 7.4), MgCl2 (2.5 mM), and NADPH (1 mM) was added for measurement of the corresponding P450 activities. Incubations were terminated by addition of 200 μL methanol. Samples were then extracted and centrifuged and the supernatant was subjected to validated LC-MS/MS analysis.
(Liver microsomes are a subcellular fraction often used to study metabolism.)

For a further series, the system named is VCAM-1. As to the kind of experiment: LPS-induced VCAM-1 mRNA expression in HUVECs. The note with it: 1, 3, 10 μM for 1 h prior to LPS (1 μg/ml) stimulation for 24 h. Format: cell-based, human. The protocol: HUVECs were treated for 1 h with ginsenoside CK (1 μM, 3 μM, and 10 μM) prior to LPS (1 μg/ml) stimulation for 24 h. (A) ICAM-1 (B) VCAM-1 mRNA expression. Values are means±SEM of 3 independent experiments. Statistical significance assessed by one-way ANOVA followed by Scheffe post-hoc test for multiple comparisons (***P<0.01, *P<0.05 vs LPS).
Treatment of HUVECs with LPS (1 μg/ml) increased ICAM-1 and VCAM-1 mRNA expression. Twenty-four hours after LPS treatment, maximal expression of ICAM-1 and VCAM-1 was attained. To determine whether LPS-stimulated ICAM-1 and VCAM-1 mRNA expression is affected by ginsenoside CK, HUVECs were treated for 1 h with ginsenoside CK (1 μM, 3 μM, and 10 μM) prior to LPS (1 μg/ml) stimulation for 24 h.

pIC50: −log10 of the molar value.

On to `CC(C)=CCC[C@](C)(O[C@@H]1O[C@H](CO)[C@@H](O)[C@H](O)[C@H]1O)[C@H]1CC[C@]2(C)[C@@H]1[C@H](O)C[C@@H]1[C@@]3(C)CC[C@H](O)C(C)(C)[C@@H]3CC[C@]12C` [CK, Ginsenoside compound K], for which the “platelet aggregation level after treating the platelet with CK” value with Human platelets is listed as “decreased”. For the same molecule, the “inhibition at concentration of 50 μM” value at CYP2C8 (50 μM, 30 min pre-incubation in the presence or absence of NADPH) is “did not inhibit”. The pIC50 against CYP2C8 (pooled human liver microsomes, substrate Amodiaquine) is < 4.30. Further, the “LPS-stimulated VCAM-1 mRNA expression” value in the series on VCAM-1 is listed as “significantly inhibited”.

For orientation: pIC50 means the IC50 on a negative log10 scale, so that one unit is a factor of ten.
